# Assay results reported in ChEMBL document CHEMBL1201862, “PubChem BioAssay data set” (2004).
#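 48-hour exposure; five concentrations; linearly interpolated endpoints. At the GI50, growth is halved.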 Active and inactive are the calls of the source. Cut-off read from the data, not from the text of the source: active = GI50 up to about 1.1 µM and inactive = higher.
# Tests used:
# Experiment in all cases: DTP human tumour cell line panel, 48 h
# [1] = tested on: XF498
# [2] = tested on: CAKI-1
# [3] = tested on: UACC-62
# [4] = tested on: OVCAR-8
# [5] = tested on: DMS-273
# [6] = tested on: HT-29
# [7] = tested on: HOP-92
# [8] = tested on: SK-MEL-2
# [9] = tested on: SF-295
# [10] = tested on: DMS-114
# [11] = tested on: SNB-78
# [12] = tested on: RXF 393
# [13] = tested on: UACC-257
# [14] = tested on: DLD-1
# [15] = tested on: EKVX
# [16] = tested on: M19-MEL
# [17] = tested on: MOLT-4
# [18] = tested on: HCT-116
# [19] = tested on: OVCAR-4
# [20] = tested on: NCI-H460
# [21] = tested on: SR
# [22] = tested on: RPMI-8226
# [23] = tested on: SK-MEL-5
# [24] = tested on: IGROV-1
# [25] = tested on: HCC 2998
# [26] = tested on: SK-MEL-28
# [27] = tested on: K562
# [28] = tested on: LOX IMVI
# [29] = tested on: SNB-75
# [30] = tested on: HCT-15
# [31] = tested on: NCI-H226
# [32] = tested on: A549
# [33] = tested on: NCI-H522
# [34] = tested on: OVCAR-3
# [35] = tested on: KM12
# [36] = tested on: OVCAR-5
# [37] = tested on: NCI-H23
# [38] = tested on: KM-20L2
# [39] = tested on: TK-10
# [40] = tested on: HOP-18
# [41] = tested on: HOP-62
# [42] = tested on: Malme-3M
# [43] = tested on: SW-620
# [44] = tested on: COLO 205
# [45] = tested on: SK-OV-3
# [46] = tested on: LXFL 529
# [47] = tested on: HL-60
# [48] = tested on: ACHN
# [49] = tested on: U-251
# [50] = tested on: UO-31
# [51] = tested on: 786-0
# [52] = tested on: SNB-19
# [53] = tested on: M14
# [54] = tested on: CCRF-CEM
# [55] = tested on: SF-268
# [56] = tested on: PC-3
# [57] = tested on: SN12C
# [58] = tested on: SF-539
# [59] = tested on: Hs-578T
# [60] = tested on: A498
# [61] = tested on: DU-145
# [62] = tested on: NCI/ADR-RES
# [63] = tested on: T47D
# [64] = tested on: MCF7
# [65] = tested on: BT-549
# [66] = tested on: MDA-N
smiles,measurement,setting,value
COC(=O)c1onc(-c2c(OC)cc(OC)cc2OC)c1C(=O)OC,GI50,[1],> 100 µM (inactive)
same,GI50,[2],> 100 µM (inactive)
same,GI50,[3],> 100 µM (inactive)
same,GI50,[4],> 100 µM (inactive)
same,GI50,[5],> 100 µM (inactive)
same,GI50,[6],> 100 µM (inactive)
same,GI50,[7],> 100 µM (inactive)
same,GI50,[8],> 100 µM (inactive)
same,GI50,[9],> 100 µM (inactive)
same,GI50,[10],> 100 µM (inactive)
same,GI50,[11],> 100 µM (inactive)
same,GI50,[12],> 100 µM (inactive)
same,GI50,[13],> 100 µM (inactive)
same,GI50,[14],> 100 µM (inactive)
same,GI50,[15],> 100 µM (inactive)
same,GI50,[16],> 100 µM (inactive)
same,GI50,[17],> 100 µM (inactive)
same,GI50,[18],> 100 µM (inactive)
same,GI50,[19],> 100 µM (inactive)
same,GI50,[20],> 100 µM (inactive)
same,GI50,[21],> 100 µM (inactive)
same,GI50,[22],> 100 µM (inactive)
same,GI50,[23],> 100 µM (inactive)
same,GI50,[24],> 100 µM (inactive)
same,GI50,[25],> 100 µM (inactive)
same,GI50,[26],> 100 µM (inactive)
same,GI50,[27],> 100 µM (inactive)
same,GI50,[28],> 100 µM (inactive)
same,GI50,[29],> 100 µM (inactive)
same,GI50,[30],> 100 µM
same,GI50,[31],> 100 µM (inactive)
same,GI50,[32],> 100 µM (inactive)
same,GI50,[33],> 100 µM (inactive)
same,GI50,[34],> 100 µM (inactive)
same,GI50,[35],> 100 µM (inactive)
same,GI50,[36],> 100 µM (inactive)
same,GI50,[37],> 100 µM (inactive)
same,GI50,[38],> 100 µM (inactive)
same,GI50,[39],> 100 µM (inactive)
same,GI50,[40],> 100 µM (inactive)
same,GI50,[41],> 100 µM (inactive)
same,GI50,[42],> 100 µM (inactive)
same,GI50,[43],> 100 µM (inactive)
same,GI50,[44],> 100 µM (inactive)
same,GI50,[45],> 100 µM (inactive)
same,GI50,[46],> 100 µM (inactive)
same,GI50,[47],> 100 µM (inactive)
same,GI50,[48],> 100 µM (inactive)
same,GI50,[49],> 100 µM (inactive)
same,GI50,[50],> 100 µM (inactive)
same,GI50,[51],> 100 µM (inactive)
same,GI50,[52],> 100 µM (inactive)
same,GI50,[53],> 100 µM (inactive)
same,GI50,[54],> 100 µM (inactive)
same,GI50,[55],> 100 µM (inactive)
COc1cc2cc(c1Cl)N(C)C(=O)C[C@H](OC(=O)[C@H](C)N(C)C(C)=O)[C@]1(C)O[C@H]1[C@H](C)[C@@H]1C[C@@](O)(NC(=O)O1)[C@H](OC)/C=C/C=C(/C)C2,GI50,[56],0.000505 µM (active)
same,GI50,[1],0.0628 µM (active)
same,GI50,[2],0.0531 µM (active)
same,GI50,[3],0.0337 µM (active)
same,GI50,[4],0.0218 µM (active)
same,GI50,[5],0.01 µM (active)
same,GI50,[6],0.0164 µM (active)
same,GI50,[7],0.0118 µM (active)
same,GI50,[8],0.0491 µM (active)
same,GI50,[9],0.0174 µM (active)
same,GI50,[10],0.0323 µM (active)
same,GI50,[11],0.025 µM (active)
same,GI50,[12],0.0236 µM (active)
same,GI50,[13],0.0373 µM (active)
same,GI50,[14],0.025 µM (active)
same,GI50,[15],0.355 µM (active)
same,GI50,[16],0.0628 µM (active)
same,GI50,[17],0.0229 µM (active)
same,GI50,[18],0.0143 µM (active)
same,GI50,[19],0.794 µM (active)
same,GI50,[20],0.0157 µM (active)
same,GI50,[21],0.0156 µM (active)
same,GI50,[57],0.0203 µM (active)
same,GI50,[22],0.0133 µM (active)
same,GI50,[23],0.0135 µM (active)
same,GI50,[58],0.015 µM (active)
same,GI50,[59],0.0219 µM (active)
same,GI50,[24],0.0239 µM (active)
same,GI50,[25],0.0175 µM (active)
same,GI50,[26],0.0327 µM (active)
same,GI50,[27],0.0176 µM (active)
same,GI50,[60],0.0161 µM (active)
same,GI50,[28],0.0153 µM (active)
same,GI50,[29],0.0174 µM (active)
same,GI50,[30],0.0292 µM
same,GI50,[31],0.0435 µM (active)
same,GI50,[32],0.0255 µM (active)
same,GI50,[61],0.00135 µM (active)
same,GI50,[62],0.0975 µM (active)
same,GI50,[63],> 100 µM (inactive)
same,GI50,[33],0.0173 µM (active)
same,GI50,[34],0.0127 µM (active)
same,GI50,[35],0.0149 µM (active)
same,GI50,[64],0.018 µM (active)
same,GI50,[36],6.98 µM (inactive)
same,GI50,[37],0.0201 µM (active)
same,GI50,[38],0.0308 µM (active)
same,GI50,[65],0.334 µM (active)
same,GI50,[39],0.238 µM (active)
same,GI50,[40],0.695 µM (active)
same,GI50,[41],0.0199 µM (active)
same,GI50,[42],0.0351 µM (active)
same,GI50,[43],0.0165 µM (active)
same,GI50,[44],0.02 µM (active)
same,GI50,[45],0.0444 µM (active)
same,GI50,[46],0.01 µM (active)
same,GI50,[47],0.0125 µM (active)
same,GI50,[48],0.0526 µM (active)
same,GI50,[49],0.015 µM (active)
same,GI50,[50],0.0944 µM (active)
same,GI50,[51],0.025 µM (active)
same,GI50,[52],0.0149 µM (active)
same,GI50,[53],0.0509 µM (active)
same,GI50,[54],0.0159 µM (active)
same,GI50,[55],0.0176 µM (active)
same,GI50,[66],0.0131 µM (active)
